Assay results: the supplement of paper PMC10307832

Assays:
Experiment in all cases: relative viability (nuclei count vs DMSO), 5 days (fraction); higher = more cells survive
EHT 1864 = compound: C1COCCN1CC2=CC(=O)C(=CO2)OCCCCCSC3=C4C=CC(=CC4=NC=C3)C(F)(F)F [EHT 1864]
Method in brief: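 Five library-drug doses spaced by √10 were pinned onto vehicle-anchored 1536-well plates of lung cancer cell lines that had been kept overnight at 37 °C. Cells went 5 days without medium change, then were fixed, permeabilised and Hoechst-stained together, imaged at 4× and counted by MetaXpress. Viability is the ratio of treated-well to vehicle-well nuclei, taken as a median over plates. Plates required control CV below 25% and at least one doubling.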

EHT 1864 + Luminespib = compound: C1COCCN1CC2=CC(=O)C(=CO2)OCCCCCSC3=C4C=CC(=CC4=NC=C3)C(F)(F)F [EHT 1864] + CCNC(=O)c1noc(-c2cc(C(C)C)c(O)cc2O)c1-c1ccc(CN2CCOCC2)cc1 [Luminespib] (partner 0.01 µM)
Method in brief: (§1)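 Medians of duplicate plates are given as relative viability. That measure is the nuclei count in treated wells divided by the count in vehicle wells. Counts were taken on 4× images of lung cancer cell lines in 1536-well plates, 5 days after pin-tool dosing the day after seeding with one drug alone or a fixed anchor-drug dose plus five library-drug doses (not always all listed) in √10 steps.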

EHT 1864 + Foretinib = compound: C1COCCN1CC2=CC(=O)C(=CO2)OCCCCCSC3=C4C=CC(=CC4=NC=C3)C(F)(F)F [EHT 1864] + COc1cc2c(Oc3ccc(NC(=O)C4(C(=O)Nc5ccc(F)cc5)CC4)cc3F)ccnc2cc1OCCCN1CCOCC1 [Foretinib] (partner 0.25 µM)
Method in brief: as §1

EHT 1864 + OSI-027 = compound: C1COCCN1CC2=CC(=O)C(=CO2)OCCCCCSC3=C4C=CC(=CC4=NC=C3)C(F)(F)F [EHT 1864] + COc1cccc2cc(-c3nc([C@H]4CC[C@H](C(=O)O)CC4)n4ncnc(N)c34)[nH]c12 [OSI-027] (partner 0.5 µM)
Method in brief: as §1

EHT 1864 + Tozasertib = compound: C1COCCN1CC2=CC(=O)C(=CO2)OCCCCCSC3=C4C=CC(=CC4=NC=C3)C(F)(F)F [EHT 1864] + Cc1cc(Nc2cc(N3CCN(C)CC3)nc(Sc3ccc(NC(=O)C4CC4)cc3)n2)n[nH]1 [Tozasertib] (partner 0.1 µM)
Method in brief: as §1

EHT 1864 + Dasatinib = compound: C1COCCN1CC2=CC(=O)C(=CO2)OCCCCCSC3=C4C=CC(=CC4=NC=C3)C(F)(F)F [EHT 1864] + Cc1nc(Nc2ncc(C(=O)Nc3c(C)cccc3Cl)s2)cc(N2CCN(CCO)CC2)n1 [Dasatinib] (partner 0.075 µM)
Method in brief: as §1

EHT 1864 + Phenformin = compound: C1COCCN1CC2=CC(=O)C(=CO2)OCCCCCSC3=C4C=CC(=CC4=NC=C3)C(F)(F)F [EHT 1864] + N=C(N)NC(=N)NCCc1ccccc1 [Phenformin] (partner 250 µM)
Method in brief: as §1

EHT 1864 + Trametinib = compound: C1COCCN1CC2=CC(=O)C(=CO2)OCCCCCSC3=C4C=CC(=CC4=NC=C3)C(F)(F)F [EHT 1864] + CC(=O)Nc1cccc(-n2c(=O)n(C3CC3)c(=O)c3c(Nc4ccc(I)cc4F)n(C)c(=O)c(C)c32)c1 [Trametinib] (partner 0.02 µM)
Method in brief: as §1

EHT 1864 + Palbociclib = compound: C1COCCN1CC2=CC(=O)C(=CO2)OCCCCCSC3=C4C=CC(=CC4=NC=C3)C(F)(F)F [EHT 1864] + CC(=O)c1c(C)c2cnc(Nc3ccc(N4CCNCC4)cn3)nc2n(C2CCCC2)c1=O [Palbociclib] (partner 0.5 µM)
Method in brief: as §1

EHT 1864 + AZD7762 = compound: C1COCCN1CC2=CC(=O)C(=CO2)OCCCCCSC3=C4C=CC(=CC4=NC=C3)C(F)(F)F [EHT 1864] + NC(=O)Nc1cc(-c2cccc(F)c2)sc1C(=O)N[C@H]1CCCNC1 [AZD7762] (partner 0.2 µM)
Method in brief: as §1

EHT 1864 + Pemetrexed = compound: C1COCCN1CC2=CC(=O)C(=CO2)OCCCCCSC3=C4C=CC(=CC4=NC=C3)C(F)(F)F [EHT 1864] + Nc1nc2[nH]cc(CCc3ccc(C(=O)N[C@@H](CCC(=O)O)C(=O)O)cc3)c2c(=O)[nH]1 [Pemetrexed] (partner 0.2 µM)
Method in brief: as §1

EHT 1864 + Decitabine = compound: C1COCCN1CC2=CC(=O)C(=CO2)OCCCCCSC3=C4C=CC(=CC4=NC=C3)C(F)(F)F [EHT 1864] + Nc1ncn([C@H]2C[C@H](O)[C@@H](CO)O2)c(=O)n1 [Decitabine] (partner 2 µM)
Method in brief: as §1

EHT 1864 + Vorinostat = compound: C1COCCN1CC2=CC(=O)C(=CO2)OCCCCCSC3=C4C=CC(=CC4=NC=C3)C(F)(F)F [EHT 1864] + O=C(CCCCCCC(=O)Nc1ccccc1)NO [Vorinostat] (partner 1 µM)
Method in brief: as §1

EHT 1864 + Olaparib = compound: C1COCCN1CC2=CC(=O)C(=CO2)OCCCCCSC3=C4C=CC(=CC4=NC=C3)C(F)(F)F [EHT 1864] + O=C(c1cc(Cc2n[nH]c(=O)c3ccccc23)ccc1F)N1CCN(C(=O)C2CC2)CC1 [Olaparib] (partner 8 µM)
Method in brief: as §1

NCI-H1623 showed a relative viability (EHT 1864; 0.04 µM) of 0.995, a relative viability (EHT 1864; 0.1265 µM) of 0.972 and a relative viability (EHT 1864; 0.4 µM) of 1.02. The relative viability (EHT 1864; 1.265 µM) was 0.921, the relative viability (EHT 1864; 4 µM) was 1.14 and the relative viability (EHT 1864 + Luminespib; first compound 0.04 µM) was 0.584. The relative viability (EHT 1864 + Luminespib; first compound 0.1265 µM) was 0.522, the relative viability (EHT 1864 + Luminespib; first compound 0.4 µM) was 0.445 and the relative viability (EHT 1864 + Luminespib; first compound 1.265 µM) was 0.581. It also gave a relative viability (EHT 1864 + Luminespib; first compound 4 µM) of 0.384, a relative viability (EHT 1864 + Foretinib; first compound 0.04 µM) of 0.937 and a relative viability (EHT 1864 + Foretinib; first compound 0.1265 µM) of 0.869. For the same cell line, the relative viability (EHT 1864 + Foretinib; first compound 0.4 µM) was 0.855, the relative viability (EHT 1864 + Foretinib; first compound 1.265 µM) was 0.959 and the relative viability (EHT 1864 + Foretinib; first compound 4 µM) was 0.959. For the same cell line, the relative viability (EHT 1864 + OSI-027; first compound 0.04 µM) was 0.439, the relative viability (EHT 1864 + OSI-027; first compound 0.1265 µM) was 0.433 and the relative viability (EHT 1864 + OSI-027; first compound 0.4 µM) was 0.474. It also gave a relative viability (EHT 1864 + OSI-027; first compound 1.265 µM) of 0.475, a relative viability (EHT 1864 + OSI-027; first compound 4 µM) of 0.432 and a relative viability (EHT 1864 + Tozasertib; first compound 0.04 µM) of 0.418. It also gave a relative viability (EHT 1864 + Tozasertib; first compound 0.1265 µM) of 0.394, a relative viability (EHT 1864 + Tozasertib; first compound 0.4 µM) of 0.445 and a relative viability (EHT 1864 + Tozasertib; first compound 1.265 µM) of 0.458. It also gave a relative viability (EHT 1864 + Tozasertib; first compound 4 µM) of 0.399, a relative viability (EHT 1864 + Dasatinib; first compound 0.04 µM) of 0.641 and a relative viability (EHT 1864 + Dasatinib; first compound 0.1265 µM) of 0.676. The relative viability (EHT 1864 + Dasatinib; first compound 0.4 µM) was 0.514, the relative viability (EHT 1864 + Dasatinib; first compound 1.265 µM) was 0.583 and the relative viability (EHT 1864 + Dasatinib; first compound 4 µM) was 0.477. The relative viability (EHT 1864 + Phenformin; first compound 0.04 µM) was 0.617, the relative viability (EHT 1864 + Phenformin; first compound 0.1265 µM) was 0.665 and the relative viability (EHT 1864 + Phenformin; first compound 0.4 µM) was 0.576. The relative viability (EHT 1864 + Phenformin; first compound 1.265 µM) was 0.617 and the relative viability (EHT 1864 + Phenformin; first compound 4 µM) was 0.539.

SW 900 was tested, and the relative viability (EHT 1864; 0.04 µM) was 0.942, the relative viability (EHT 1864; 0.4 µM) was 0.929 and the relative viability (EHT 1864; 1.265 µM) was 0.929. The relative viability (EHT 1864; 4 µM) was 0.782, the relative viability (EHT 1864 + Trametinib; first compound 0.04 µM) was 0.686 and the relative viability (EHT 1864 + Trametinib; first compound 0.4 µM) was 0.77. It also gave a relative viability (EHT 1864 + Trametinib; first compound 1.265 µM) of 0.796, a relative viability (EHT 1864 + Trametinib; first compound 4 µM) of 0.758 and a relative viability (EHT 1864 + Palbociclib; first compound 0.04 µM) of 0.515. It also gave a relative viability (EHT 1864 + Palbociclib; first compound 0.4 µM) of 0.586, a relative viability (EHT 1864 + Palbociclib; first compound 1.265 µM) of 0.573 and a relative viability (EHT 1864 + Palbociclib; first compound 4 µM) of 0.498. The relative viability (EHT 1864 + Luminespib; first compound 0.04 µM) was 0.177, the relative viability (EHT 1864 + Luminespib; first compound 0.4 µM) was 0.181 and the relative viability (EHT 1864 + Luminespib; first compound 1.265 µM) was 0.177. It also gave a relative viability (EHT 1864 + Luminespib; first compound 4 µM) of 0.145, a relative viability (EHT 1864 + Foretinib; first compound 0.04 µM) of 0.524 and a relative viability (EHT 1864 + Foretinib; first compound 0.4 µM) of 0.862. It also gave a relative viability (EHT 1864 + Foretinib; first compound 1.265 µM) of 0.89, a relative viability (EHT 1864 + Foretinib; first compound 4 µM) of 0.687 and a relative viability (EHT 1864 + OSI-027; first compound 0.04 µM) of 0.555. For the same cell line, the relative viability (EHT 1864 + OSI-027; first compound 0.4 µM) was 0.548, the relative viability (EHT 1864 + OSI-027; first compound 1.265 µM) was 0.583 and the relative viability (EHT 1864 + OSI-027; first compound 4 µM) was 0.483. For the same cell line, the relative viability (EHT 1864 + Tozasertib; first compound 0.04 µM) was 0.531, the relative viability (EHT 1864 + Tozasertib; first compound 0.4 µM) was 0.49 and the relative viability (EHT 1864 + Tozasertib; first compound 1.265 µM) was 0.577. It also gave a relative viability (EHT 1864 + Tozasertib; first compound 4 µM) of 0.481, a relative viability (EHT 1864 + Dasatinib; first compound 0.04 µM) of 0.809 and a relative viability (EHT 1864 + Dasatinib; first compound 0.4 µM) of 0.684. The relative viability (EHT 1864 + Dasatinib; first compound 1.265 µM) was 1.02, the relative viability (EHT 1864 + Dasatinib; first compound 4 µM) was 0.552 and the relative viability (EHT 1864 + Phenformin; first compound 0.04 µM) was 0.435. It also gave a relative viability (EHT 1864 + Phenformin; first compound 0.4 µM) of 0.569, a relative viability (EHT 1864 + Phenformin; first compound 1.265 µM) of 0.521 and a relative viability (EHT 1864 + Phenformin; first compound 4 µM) of 0.597. The relative viability (EHT 1864 + AZD7762; first compound 0.04 µM) was 0.582, the relative viability (EHT 1864 + AZD7762; first compound 0.4 µM) was 0.681 and the relative viability (EHT 1864 + AZD7762; first compound 1.265 µM) was 0.632. The relative viability (EHT 1864 + AZD7762; first compound 4 µM) was 0.59, the relative viability (EHT 1864 + Pemetrexed; first compound 0.04 µM) was 0.477 and the relative viability (EHT 1864 + Pemetrexed; first compound 0.4 µM) was 0.463. For the same cell line, the relative viability (EHT 1864 + Pemetrexed; first compound 1.265 µM) was 0.473, the relative viability (EHT 1864 + Pemetrexed; first compound 4 µM) was 0.446 and the relative viability (EHT 1864 + Decitabine; first compound 0.04 µM) was 0.449. For the same cell line, the relative viability (EHT 1864 + Decitabine; first compound 0.4 µM) was 0.419, the relative viability (EHT 1864 + Decitabine; first compound 1.265 µM) was 0.46 and the relative viability (EHT 1864 + Decitabine; first compound 4 µM) was 0.504. The relative viability (EHT 1864 + Vorinostat; first compound 0.04 µM) was 0.54, the relative viability (EHT 1864 + Vorinostat; first compound 0.4 µM) was 0.531 and the relative viability (EHT 1864 + Vorinostat; first compound 1.265 µM) was 0.589. The relative viability (EHT 1864 + Vorinostat; first compound 4 µM) was 0.467, the relative viability (EHT 1864 + Olaparib; first compound 0.04 µM) was 0.73 and the relative viability (EHT 1864 + Olaparib; first compound 0.4 µM) was 0.907. It also gave a relative viability (EHT 1864 + Olaparib; first compound 1.265 µM) of 0.857 and a relative viability (EHT 1864 + Olaparib; first compound 4 µM) of 0.803.
